Broadly, the IC50 is the concentration that inhibits the measured activity by half.

T1 sequence (O00763 144-2458): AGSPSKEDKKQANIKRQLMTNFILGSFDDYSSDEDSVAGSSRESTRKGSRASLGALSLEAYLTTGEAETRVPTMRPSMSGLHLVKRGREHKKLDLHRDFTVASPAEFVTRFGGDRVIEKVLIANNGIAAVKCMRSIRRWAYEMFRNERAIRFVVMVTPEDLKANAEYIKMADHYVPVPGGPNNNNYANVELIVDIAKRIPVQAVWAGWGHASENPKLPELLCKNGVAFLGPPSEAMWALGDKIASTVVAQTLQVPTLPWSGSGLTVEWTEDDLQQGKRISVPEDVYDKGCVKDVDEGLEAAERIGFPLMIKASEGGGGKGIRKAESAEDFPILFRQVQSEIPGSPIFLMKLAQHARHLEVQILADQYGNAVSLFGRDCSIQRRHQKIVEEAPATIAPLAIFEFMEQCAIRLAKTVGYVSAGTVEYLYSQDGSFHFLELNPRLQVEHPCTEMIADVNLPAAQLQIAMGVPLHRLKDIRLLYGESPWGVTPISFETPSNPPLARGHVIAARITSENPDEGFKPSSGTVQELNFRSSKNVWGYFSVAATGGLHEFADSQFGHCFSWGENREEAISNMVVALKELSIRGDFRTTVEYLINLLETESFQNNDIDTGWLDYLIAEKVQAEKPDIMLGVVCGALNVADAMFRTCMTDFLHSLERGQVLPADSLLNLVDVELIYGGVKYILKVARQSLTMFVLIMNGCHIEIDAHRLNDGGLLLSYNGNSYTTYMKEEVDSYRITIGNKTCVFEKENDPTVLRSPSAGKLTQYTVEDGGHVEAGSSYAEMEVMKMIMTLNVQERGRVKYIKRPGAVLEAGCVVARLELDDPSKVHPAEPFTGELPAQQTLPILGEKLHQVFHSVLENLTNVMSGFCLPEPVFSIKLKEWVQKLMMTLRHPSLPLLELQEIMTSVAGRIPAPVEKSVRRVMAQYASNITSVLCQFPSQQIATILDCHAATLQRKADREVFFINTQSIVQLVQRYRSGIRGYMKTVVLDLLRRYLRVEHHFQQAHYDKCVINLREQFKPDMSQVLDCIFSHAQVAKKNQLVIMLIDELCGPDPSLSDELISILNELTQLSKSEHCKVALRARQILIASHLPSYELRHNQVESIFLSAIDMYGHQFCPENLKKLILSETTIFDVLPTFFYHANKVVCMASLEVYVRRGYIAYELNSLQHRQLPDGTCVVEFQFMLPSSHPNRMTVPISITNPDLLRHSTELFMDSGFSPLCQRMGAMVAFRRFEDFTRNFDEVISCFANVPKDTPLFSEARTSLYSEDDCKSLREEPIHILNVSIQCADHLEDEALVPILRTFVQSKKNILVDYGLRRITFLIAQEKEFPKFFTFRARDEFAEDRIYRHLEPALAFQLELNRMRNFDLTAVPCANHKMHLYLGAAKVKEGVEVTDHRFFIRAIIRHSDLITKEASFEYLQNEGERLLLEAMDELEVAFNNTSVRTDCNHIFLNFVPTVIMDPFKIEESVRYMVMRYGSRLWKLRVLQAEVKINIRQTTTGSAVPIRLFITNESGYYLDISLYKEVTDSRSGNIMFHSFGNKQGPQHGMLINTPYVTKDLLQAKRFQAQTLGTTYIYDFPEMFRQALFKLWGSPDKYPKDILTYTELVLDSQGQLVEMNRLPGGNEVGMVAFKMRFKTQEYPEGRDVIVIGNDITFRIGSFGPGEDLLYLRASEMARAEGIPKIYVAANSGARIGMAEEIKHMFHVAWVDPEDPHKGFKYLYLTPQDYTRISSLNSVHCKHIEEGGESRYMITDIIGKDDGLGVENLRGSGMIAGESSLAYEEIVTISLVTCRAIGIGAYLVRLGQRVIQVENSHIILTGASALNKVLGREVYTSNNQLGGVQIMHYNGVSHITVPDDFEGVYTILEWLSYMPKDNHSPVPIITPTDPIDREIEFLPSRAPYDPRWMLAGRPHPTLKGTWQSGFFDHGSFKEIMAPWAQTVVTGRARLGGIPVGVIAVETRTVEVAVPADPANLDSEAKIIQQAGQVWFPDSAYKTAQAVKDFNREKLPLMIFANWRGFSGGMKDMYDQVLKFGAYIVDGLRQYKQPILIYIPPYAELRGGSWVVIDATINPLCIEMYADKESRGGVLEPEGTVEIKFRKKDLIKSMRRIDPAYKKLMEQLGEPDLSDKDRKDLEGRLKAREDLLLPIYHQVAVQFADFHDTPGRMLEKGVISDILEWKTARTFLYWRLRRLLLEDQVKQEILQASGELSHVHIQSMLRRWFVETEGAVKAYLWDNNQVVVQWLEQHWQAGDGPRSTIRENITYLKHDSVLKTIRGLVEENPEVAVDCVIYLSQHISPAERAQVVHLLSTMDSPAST

One assay addresses T1, human acetyl-CoA carboxylase 2 (ACC2) (Homo sapiens, UniProt O00763).
T1 construct: The cDNA encoding amino acids 144 to 2458 of human acetyl-CoA carboxylase 2; made in house; host or cells: Sf9 insect cells (baculovirus, pFastBac1)
Put plainly: Acetyl-CoA carboxylase enzyme assay (malonyl-CoA formation by LC/MS/MS). Format: biochemical. The following applies: IC50 ACC2, recombinant human ACC2 (aa 144-2458). An outline of the steps: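 Malonyl-CoA formation was read by LC/MS/MS MRM against a [13C3]-malonyl-CoA internal standard, after acetic acid quench. The enzyme was baculovirus/Sf9-expressed human ACC2 residues 144–2458, given 15 minutes room-temperature compound preincubation in HEPES pH 7.5 buffer with MgCl2, citrate and DTT. Substrate solution held 50 μM acetyl-CoA, 120 μM ATP and 2 mM KHCO3.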
Turning to `O=C([C@H]1CC[C@H](NS(=O)(=O)c2ccc3[nH]c(-c4ccccc4)nc3c2)CC1)N1CCC2(CC1)OCCCO2` [Example 622, N-((1r,4r)-4-(1,5-dioxa-9-azaspiro[5.5]undecane-9-carbonyl)cyclohexyl)-2-phenyl-1H-benzo[d]imidazole-5-sulfonamide], the IC50 stood at 411 nM.

Staying with this assay, now noted: recombinant human ACC2 (aa 144-2458); read-out: IC50 ACC2.
Take `Cc1nc2ccc(S(=O)(=O)N[C@H]3CC[C@H](C(=O)N4CCOCC4)CC3)cc2s1` [Example 658, 2-methyl-N-((1r,4r)-4-(morpholine-4-carbonyl)cyclohexyl)benzo[d]thiazole-6-sulfonamide]: the IC50 came to 71700 nM.
The same measure, in the same setting: to `C[C@H]1CCCCN1C(=O)[C@H]1CC[C@H](NS(=O)(=O)c2ccc3c(C#N)c(C4CC4)n(C)c3c2)CC1` [Example 382, 3-cyano-2-cyclopropyl-1-methyl-N-((1S,4r)-4-((S)-2-methylpiperidine-1-carbonyl)cyclohexyl)-1H-indole-6-sulfonamide] belongs 95 nM; to `C[C@@H](NC(=O)[C@H]1CC[C@H](NS(=O)(=O)c2ccc3c(c2)NCCC3)CC1)c1ccc(F)cc1` [Example 151, (1r,4R)-N-((R)-1-(4-fluorophenyl)ethyl)-4-(1,2,3,4-tetrahydroquinoline-7-sulfonamido)cyclohexanecarboxamide], 47 nM.
For `COCCOc1ccc(-c2cc3ccc(S(=O)(=O)N[C@H]4CC[C@H](C(=O)N5CCOC[C@@H]5C(C)C)CC4)cc3n2C)cc1` [Example 447, N-((1S,4r)-4-((S)-3-isopropylmorpholine-4-carbonyl)cyclohexyl)-2-(4-(2-methoxyethoxy)phenyl)-1-methyl-1H-indole-6-sulfonamide], the IC50 was determined as 25 nM.
For `CN1CCN(c2ccc3cc(S(=O)(=O)NC4CCC(C(=O)N5CCNCC5c5ccccc5)CC4)ccc3n2)CC1` (centres unmarked) [Example 259, 2-(4-methylpiperazin-1-yl)-N-((1r,4r)-4-(2-phenylpiperazine-1-carbonyl)cyclohexyl)quinoline-6-sulfonamide], the IC50 is 450 nM.
Regarding `CC(C)OC(=O)c1ccc(NS(=O)(=O)c2ccc3[nH]c(-c4ccc(CN5CCN(C)CC5)cc4)nc3c2)cc1` [Example 561, isopropyl 4-(2-(4-((4-methylpiperazin-1-yl)methyl)phenyl)-1H-benzo[d]imidazole-5-sulfonamido)benzoate], the IC50 stood at 316 nM.
As to `CC(C)(NC(=O)[C@H]1CC[C@H](NS(=O)(=O)c2ccc3[nH]c(-c4ccccc4)nc3c2)CC1)c1ccccc1` [Example 582, (1r,4r)-4-(2-phenyl-1H-benzo[d]imidazole-5-sulfonamido)-N-(2-phenylpropan-2-yl)cyclohexanecarboxamide], the IC50 came out at 250 nM.
Regarding `CCOc1ccc2cc(S(=O)(=O)N[C@H]3CC[C@H](C(=O)N4CCNC[C@@H]4c4ccccc4)CC3)ccc2n1` [Example 234, 2-ethoxy-N-((1S,4r)-4-((S)-2-phenylpiperazine-1-carbonyl)cyclohexyl)quinoline-6-sulfonamide], the IC50 worked out at 20 nM.
Still for that read-out and setting: next, `CC(C)c1nnc([C@H]2CC[C@H](NS(=O)(=O)c3ccc4[nH]c(Nc5ccc(N6CCOCC6)cc5)nc4c3)CC2)o1` [Example 599, N-((1r,4r)-4-(5-isopropyl-1,3,4-oxadiazol-2-yl)cyclohexyl)-2-(4-morpholinophenylamino)-1H-benzo[d]imidazole-5-sulfonamide]: 270 nM.
Still for that read-out and setting: next, `O=C([C@H]1CC[C@H](NS(=O)(=O)c2cnc3c(c2)NCCN3)CC1)N1CCNC[C@@H]1c1ccccc1` [Example 191, N-((1S,4r)-4-((S)-2-phenylpiperazine-1-carbonyl)cyclohexyl)-1,2,3,4-tetrahydropyrido[3,2-b]pyrazine-7-sulfonamide]: 150 nM.
As to `CC(C)CNC(=O)[C@H]1CC[C@H](NS(=O)(=O)c2ccc3[nH]c(-c4ccccc4)nc3c2)CC1` [Example 629, (1r,4r)-N-isobutyl-4-(2-phenyl-1H-benzo[d]imidazole-5-sulfonamido)cyclohexanecarboxamide], the IC50 is 1760 nM.
Consider `CCN(C)C(=O)[C@H]1CC[C@H](NS(=O)(=O)c2ccc3cc(-c4ccc(CCC(=O)OC)cc4)n(C)c3c2)CC1` [Example 364, methyl 3-(4-(6-(N-((1r,4r)-4-(ethyl(methyl)carbamoyl)cyclohexyl)sulfamoyl)-1-methyl-1H-indol-2-yl)phenyl)propanoate], for which the IC50 stood at 140 nM.
Same read-out and setting: to `CC(C)OC(=O)c1ccc(NS(=O)(=O)c2ccc3[nH]c(-c4ccccc4)nc3c2)cc1` [Example 488, isopropyl 4-(2-phenyl-1H-benzo[d]imidazole-5-sulfonamido)benzoate] belongs 1030 nM; to `COCc1ccc(-c2[nH]c3cc(S(=O)(=O)N[C@H]4CC[C@H](C(=O)N5CCOC[C@@H]5C5CC5)CC4)ccc3c2Cl)cc1` [Example 480, 3-chloro-N-((1S,4r)-4-((S)-3-cyclopropylmorpholine-4-carbonyl)cyclohexyl)-2-(4-(methoxymethyl)phenyl)-1H-indole-6-sulfonamide], below 10 nM.
Consider `C[C@@H](NC(=O)[C@H]1CC[C@H](NS(=O)(=O)c2cnc3c(c2)NCCS3)CC1)c1ccc(F)cc1` [Example 35, (1r,4R)-4-(2,3-dihydro-1H-pyrido[2,3-b][1,4]thiazine-7-sulfonamido)-N—((R)-1-(4-fluorophenyl)ethyl)cyclohexanecarboxamide], for which the IC50 was 10 nM.
Consider `CC(C)[C@H]1COCCN1C(=O)[C@H]1CC[C@H](NS(=O)(=O)c2ccc3cc(-c4ccccc4)n(C)c3c2)CC1` [Example 434, N-((1S,4r)-4-((S)-3-isopropylmorpholine-4-carbonyl)cyclohexyl)-1-methyl-2-phenyl-1H-indole-6-sulfonamide], for which the IC50 worked out at 10 nM.
With `Cn1ccc2cc(S(=O)(=O)N[C@H]3CC[C@H](C(=O)N[C@H](CO)c4ccccc4)CC3)ccc21` [Example 670, (1r,4S)-N-((S)-2-hydroxy-1-phenylethyl)-4-(1-methyl-1H-indole-5-sulfonamido)cyclohexanecarboxamide], the IC50 turned out to be 66 nM.
With `CCOc1ccc2cc(S(=O)(=O)N[C@H]3CC[C@H](C(=O)N4CCNC[C@@H]4C(=O)OC)CC3)ccc2n1` [Example 236, (R)-methyl 1-((1r,4R)-4-(2-ethoxyquinoline-6-sulfonamido)cyclohexanecarbonyl)piperazine-2-carboxylate], the IC50 was found to be 385 nM.
The same measure, in the same setting: next, `O=C([C@H]1CC[C@H](NS(=O)(=O)c2cnc3c(c2)NCCN3)CC1)N1CCNCC1c1ccccc1` (some centres unmarked) [Example 186, N-((1r,4r)-4-(2-phenylpiperazine-1-carbonyl)cyclohexyl)-1,2,3,4-tetrahydropyrido[3,2-b]pyrazine-7-sulfonamide]: 245 nM.
For the compound `CC(C)(C)OC(=O)N1CCN(C(=O)[C@H]2CC[C@H](NS(=O)(=O)c3ccc4c(c3)CCC4)CC2)[C@@H](c2ccccc2)C1` [Example 241, (S)-tert-butyl 4-((1r,4S)-4-(2,3-dihydro-1H-indene-5-sulfonamido)cyclohexanecarbonyl)-3-phenylpiperazine-1-carboxylate], the IC50 turned out to be 25 nM.
The same measure, in the same setting: to `CC(C)[C@H]1COCCN1C(=O)[C@H]1CC[C@H](NS(=O)(=O)c2ccc3nc(N4CCN(C)CC4)ccc3c2)CC1` [Example 260, N-((1S,4r)-4-((S)-3-isopropylmorpholine-4-carbonyl)cyclohexyl)-2-(4-methylpiperazin-1-yl)quinoline-6-sulfonamide] belongs 2960 nM; to `CC(C)OC(=O)c1ccc(NS(=O)(=O)c2ccc3[nH]c(Nc4cccc(Cl)c4)nc3c2)cc1` [Example 547, isopropyl 4-(2-(3-chlorophenylamino)-1H-benzo[d]imidazole-5-sulfonamido)benzoate], 374 nM; to `C[C@@H](NC(=O)[C@H]1CC[C@H](NS(=O)(=O)c2ccc3cc(CCCO)[nH]c3c2)CC1)c1ccc(F)cc1` [Example 319, (1r,4R)-N-((R)-1-(4-fluorophenyl)ethyl)-4-(2-(3-hydroxypropyl)-1H-indole-6-sulfonamido)cyclohexanecarboxamide], 25 nM.
As for `COCCOc1ccc(-c2cc3ccc(S(=O)(=O)N[C@H]4CC[C@H](C(=O)N5CCOC[C@@H]5C)CC4)cc3n2C)cc1` [Example 448, 2-(4-(2-methoxyethoxy)phenyl)-1-methyl-N-((1S,4r)-4-((S)-3-methylmorpholine-4-carbonyl)cyclohexyl)-1H-indole-6-sulfonamide], the IC50 came to 65 nM.
As for `COC(=O)CN1CCCc2ccc(S(=O)(=O)N[C@H]3CC[C@H](C(=O)N[C@H](C)c4ccc(F)cc4)CC3)cc21` [Example 164, methyl 2-(7-(N-((1R,4r)-4-((R)-1-(4-fluorophenyl)ethylcarbamoyl)cyclohexyl)sulfamoyl)-3,4-dihydroquinolin-1(2H)-yl)acetate], the IC50 was found to be 350 nM.
On to `CC(=O)N1CCc2cc(S(=O)(=O)N[C@H]3CC[C@H](C(=O)N[C@H](C)c4ccc(F)cc4)CC3)ccc21` [Example 106, (1r,4R)-4-(1-acetylindoline-5-sulfonamido)-N-((R)-1-(4-fluorophenyl)ethyl)cyclohexanecarboxamide], for which the IC50 was found to be 388 nM.
Take `C[C@@H](NC(=O)[C@H]1CC[C@H](NS(=O)(=O)c2ccc3nc(N4CCNCC4)ccc3c2)CC1)c1ccc(F)cc1` [Example 238, (1r,4R)-N-((R)-1-(4-fluorophenyl)ethyl)-4-(2-(piperazin-1-yl)quinoline-6-sulfonamido)cyclohexanecarboxamide]: the IC50 is 65 nM.
The same measure, in the same setting: next, `C[C@@H](NC(=O)[C@H]1CC[C@H](NS(=O)(=O)c2ccc3nc(N4CCOCC4)ccc3c2)CC1)c1ccc(F)cc1` [Example 213, (1r,4R)-N-((R)-1-(4-fluorophenyl)ethyl)-4-(2-morpholinoquinoline-6-sulfonamido)cyclohexanecarboxamide]: 95 nM.
